Earlier results, collected in US20190021998A1, “TOPICAL NANOEMULSION THERAPY FOR WOUNDS” (THE REGENTS OF THE UNIVERSITY OF MICHIGAN, priority 2014, published 2019).

Details: footnote *

SMILES: CCCCCCCCCCCCCCCCCC[N+](C)(C)CCCCCCCCCCCCCCCCCC [DODAC, Dioctadecyl dimethyl ammonium chloride]
- CMC (mM), critical concentration for unilamellar vesicles: 10* mM
